Drawing on patent US20260317324A1, “BIFUNCTIONAL COMPOUNDS FOR DEGRADING BRAF VIA UBIQUITIN PROTEOSOME PATHWAY” (Nurix Therapeutics, Inc., priority 2023, published 2026), this text covers DC50 and Dmax for nine compounds.

Common to all, as to format: cell-based
The target in one assay is T1, BRAF V600E (Homo sapiens, UniProt P15056, V600E).
T1 construct: endogenous C-terminal HiBiT fusion tag on BRAF V600E allele; endogenous in cells; host or cells: A375 clone 1F10 (CRISPR-Cas9 knock-in of the HiBiT tag; parental A375 from ATCC)
T1 sequence (P15056 whole entry V600E, the tested form may be a part): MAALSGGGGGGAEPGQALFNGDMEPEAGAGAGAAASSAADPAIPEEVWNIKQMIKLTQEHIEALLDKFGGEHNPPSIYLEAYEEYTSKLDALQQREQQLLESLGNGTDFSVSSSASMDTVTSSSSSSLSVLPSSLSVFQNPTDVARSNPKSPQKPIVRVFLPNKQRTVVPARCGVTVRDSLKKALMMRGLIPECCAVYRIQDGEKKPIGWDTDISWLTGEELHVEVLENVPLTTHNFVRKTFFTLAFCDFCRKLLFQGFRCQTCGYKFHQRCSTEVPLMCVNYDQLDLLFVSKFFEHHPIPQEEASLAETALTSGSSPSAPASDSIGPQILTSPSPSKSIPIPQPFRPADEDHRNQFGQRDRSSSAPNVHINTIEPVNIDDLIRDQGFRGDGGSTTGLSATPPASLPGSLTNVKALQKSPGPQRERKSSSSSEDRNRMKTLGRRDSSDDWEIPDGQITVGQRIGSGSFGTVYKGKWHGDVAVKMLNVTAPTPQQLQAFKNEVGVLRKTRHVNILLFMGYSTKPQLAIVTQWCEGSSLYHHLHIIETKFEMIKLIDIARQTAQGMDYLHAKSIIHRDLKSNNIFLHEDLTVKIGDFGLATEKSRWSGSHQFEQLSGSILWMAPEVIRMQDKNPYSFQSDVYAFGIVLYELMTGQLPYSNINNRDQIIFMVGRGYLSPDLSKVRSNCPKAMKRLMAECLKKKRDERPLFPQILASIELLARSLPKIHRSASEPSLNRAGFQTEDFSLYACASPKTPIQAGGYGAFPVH
Briefly: BRAF HiBiT degradation assay, C-terminal HiBiT-tagged BRAF V600E A375 cells (clone 1F10), Nano-Glo HiBiT Lytic assay. To be noted: for Dmax: A-375. A digest of the protocol:
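Endogenous BRAF V600E-HiBiT A375 (1F10), 10,000 cells/well, 24 h preculture; cpd 11-pt, 1 μM–0.01 nM half-log, n=2, 0.2% DMSO; HiBiT lytic detection 10 min RT; DC50 = fitted conc at Y=50; Obs. Dmax vs DMSO.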
In general terms: The HiBiT peptide binds its large partner to form an active luciferase.

In a further assay the target is T2, BRAF G466V (Homo sapiens, UniProt P15056, G466V).
T2 construct: Horizon Discovery (HCT-116 BRAF−/− cells); host or cells: HCT-116 BRAF−/− cells, clone 8, lentiviral transduction
T2 sequence (P15056 whole entry G466V): as the sequence (P15056 whole entry V600E, the tested form may be a part) above, with G466V, E600V counted along it
The assay is described as follows: BRAF HiBiT degradation assay, C-terminal HiBiT-tagged BRAF G466V overexpressed in HCT-116 BRAF−/− cells (clone 8), Nano-Glo HiBiT Lytic assay. In a few lines:
(§1)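 Luminescence from the lytic HiBiT reagent, read after 10 min at room temperature, measured tagged BRAF remaining in lentivirally transduced HCT-116 BRAF−/− cells. Compounds were tested from 1 μM to 0.01 nM in half-log steps at 0.2% DMSO. DC50 values were fitted at 50% remaining.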

For a further assay, the target named is T3, BRAF G469A (Homo sapiens, UniProt P15056, G469A).
T3 construct: Horizon Discovery (HCT-116 BRAF−/− cells); host or cells: HCT-116 BRAF−/− cells, clone 34, lentiviral transduction
T3 sequence (P15056 whole entry G469A): as the sequence (P15056 whole entry V600E, the tested form may be a part) above, with G469A, E600V counted along it
The assay is described as follows: BRAF HiBiT degradation assay, C-terminal HiBiT-tagged BRAF G469A overexpressed in HCT-116 BRAF−/− cells (clone 34), Nano-Glo HiBiT Lytic assay. A digest of the protocol:
as §1

The target of a further assay is T4, BRAF D594G (Homo sapiens, UniProt P15056, D594G).
T4 construct: Horizon Discovery (HCT-116 BRAF−/− cells); host or cells: HCT-116 BRAF−/− cells, clone 63, lentiviral transduction
T4 sequence (P15056 whole entry D594G): as the sequence (P15056 whole entry V600E, the tested form may be a part) above, with D594G, E600V counted along it
Briefly: BRAF HiBiT degradation assay, C-terminal HiBiT-tagged BRAF D594G overexpressed in HCT-116 BRAF−/− cells (clone 63), Nano-Glo HiBiT Lytic assay. In a few lines: as §1

Setting [1] is: A375 (BRAF V600E, Class 1), DC50 at 50% degradation.
The mark [2] stands for this setting: A375 (BRAF V600E, Class 1), observed Dmax, % protein degraded relative to DMSO control.
Setting [3] is: BRAF G466V (Class 3), HCT-116 BRAF−/− cells, DC50 at 50% degradation.
[4] abbreviates: BRAF G466V (Class 3), HCT-116 BRAF−/− cells, observed Dmax relative to DMSO control.
The mark [5] stands for this setting: BRAF G469A (Class 2), HCT-116 BRAF−/− cells, DC50 at 50% degradation.
[6] abbreviates: BRAF G469A (Class 2), HCT-116 BRAF−/− cells, observed Dmax relative to DMSO control.
The mark [7] stands for this setting: BRAF D594G (Class 3), HCT-116 BRAF−/− cells, DC50 at 50% degradation.
[8] abbreviates: BRAF D594G (Class 3), HCT-116 BRAF−/− cells, observed Dmax relative to DMSO control.
The mark [9] stands for this setting: A375 (BRAF V600E), DC50 at 50%: fitted conc. at Y=50.
Setting [10] is: A375 (BRAF V600E), percentage protein degraded at maximal compound effect relative to DMSO.
[11] abbreviates: BRAF G466V, DC50 at 50%: fitted conc. at Y=50.
The mark [12] stands for this setting: HCT-116, BRAF G466V, percentage protein degraded at maximal compound effect relative to DMSO.
[13] abbreviates: Class 2, BRAF G469A, DC50 at 50%: fitted conc. at Y=50.
Setting [14] is: HCT-116, Class 2, BRAF G469A, percentage protein degraded at maximal compound effect relative to DMSO.
The mark [15] stands for this setting: BRAF D594G, DC50 at 50%: fitted conc. at Y=50.
The mark [16] stands for this setting: HCT-116, BRAF D594G, percentage protein degraded at maximal compound effect relative to DMSO.

Usually DC50 stands for the concentration at which degradation of the target reaches its halfway point. A word on the Dmax: it is the largest share of the target that was removed. Low readings indicate shallow degradation, high ones deep degradation. Take `CCN(C)S(=O)(=O)Nc1cccc(-c2cn(-c3ccc(N4CCN(CC5CCN(c6ccc([C@H]7CCC(=O)NC7=O)cn6)CC5)CC4)cc3F)nc2-c2ccncc2)c1F` [Compound 379, (3R)-3-(6-{4-[(4-{4-[4-(3-{[ethyl(methyl)sulfamoyl]amino}-2-fluorophenyl)-3-(pyridin-4-yl)-1H-pyrazol-1-yl]-3-fluorophenyl}piperazin-1-yl)methyl]piperidin-1-yl}pyridin-3-yl)piperidine-2,6-dione]: the DC50 is 50 to 500 nM at BRAF V600E (setting [1]), 50 to 500 nM on BRAF G466V (setting [3]), over 500 nM at BRAF G469A (setting [5]) and 50 to 500 nM at BRAF D594G (setting [7]). Besides, the Dmax at BRAF V600E (setting [2]) is over 70%; on BRAF G466V (setting [4]) it was 30 to 70%; on BRAF G469A (setting [6]) it was 30 to 70%; on BRAF D594G (setting [8]), 30 to 70%.
As to `O=C1CCC(c2ccc(N3CCC(CN4CCN(c5ccc(-n6cc(-c7cc(Cl)cc(NS(=O)(=O)N8CCCC8)c7F)c(-c7ccncc7)n6)cc5)CC4)CC3)c(F)c2F)C(=O)N1` (racemic) [Compound 385, Rac-N-{5-chloro-3-[1-(4-{4-[(1-{4-[(3R)-2,6-dioxopiperidin-3-yl]-2,3-difluorophenyl}piperidin-4-yl)methyl]piperazin-1-yl}phenyl)-3-(pyridin-4-yl)-1H-pyrazol-4-yl]-2-fluorophenyl}pyrrolidine-1-sulfonamide], the DC50 was 10 to 50 nM at BRAF V600E (setting [1]), under 10 nM at BRAF G466V (setting [3]), 50 to 500 nM at BRAF G469A (setting [5]) and under 10 nM on BRAF D594G (setting [7]). Besides, the Dmax at BRAF V600E (setting [2]) is over 70%; on BRAF G466V (setting [4]), over 70%; at BRAF G469A (setting [6]) it was 30 to 70%; at BRAF D594G (setting [8]), 30 to 70%.
Consider `O=C1CC[C@H](c2ccc(N3CCC(CN4CCN(c5ccc(-n6cc(-c7cc(Cl)cc(NS(=O)(=O)N8CCCC8)c7F)c(-c7ccncc7)n6)c(F)c5)CC4)CC3)cc2)C(=O)N1` [Compound 281, N-{5-chloro-3-[1-(4-{4-[(1-{4-[(3R)-2,6-dioxopiperidin-3-yl]phenyl}piperidin-4-yl)methyl]piperazin-1-yl}-2-fluorophenyl)-3-(pyridin-4-yl)-1H-pyrazol-4-yl]-2-fluorophenyl}pyrrolidine-1-sulfonamide], for which the DC50 at BRAF V600E (setting [1]) is under 10 nM; on BRAF G466V (setting [3]), under 10 nM; at BRAF G469A (setting [5]), 10 to 50 nM; on BRAF D594G (setting [7]), under 10 nM. Also, the Dmax at BRAF V600E (setting [2]) was over 70%; at BRAF G466V (setting [4]), over 70%; at BRAF G469A (setting [6]), 30 to 70%; at BRAF D594G (setting [8]), 30 to 70%.
Consider `O=C1CCC(c2ccc(N3CCC(CN4CCN(c5ccc(-n6cc(-c7cc(Cl)cc(NS(=O)(=O)N8CCCC8)c7F)c(-c7ccncc7)n6)cc5)CC4)CC3)c(F)c2)C(=O)N1` (racemic) [Compound 347, Rac-N-{5-chloro-3-[1-(4-{4-[(1-{4-[(3R)-2,6-dioxopiperidin-3-yl]-2-fluorophenyl}piperidin-4-yl)methyl]piperazin-1-yl}phenyl)-3-(pyridin-4-yl)-1H-pyrazol-4-yl]-2-fluorophenyl}pyrrolidine-1-sulfonamide], for which the DC50 at BRAF V600E (setting [1]) was under 10 nM; on BRAF G466V (setting [3]), under 10 nM; on BRAF G469A (setting [5]) it was 10 to 50 nM; on BRAF D594G (setting [7]) it was under 10 nM. Also, the Dmax is over 70% at BRAF V600E (setting [2]), over 70% on BRAF G466V (setting [4]), 30 to 70% at BRAF G469A (setting [6]) and over 70% at BRAF D594G (setting [8]).
Turning to `CCCS(=O)(=O)Nc1cccc(-c2nc(C3CCN(C(=O)C4CCN(C(=O)C5CCN(c6ccc(C7CCC(=O)NC7=O)cn6)CC5)CC4)CC3)sc2-c2ccncn2)c1F` (racemic) [Compound 220, Rac-N-[3-(2-{1-[1-(1-{5-[(3R)-2,6-dioxopiperidin-3-yl]pyridin-2-yl}piperidine-4-carbonyl)piperidine-4-carbonyl]piperidin-4-yl}-5-(pyrimidin-4-yl)-1,3-thiazol-4-yl)-2-fluorophenyl]propane-1-sulfonamide], the DC50 on BRAF V600E (setting [9]) is under 10 nM; on BRAF G466V (setting [11]), 10 to 50 nM; at BRAF G469A (setting [13]), over 500 nM; at BRAF D594G (setting [15]), under 10 nM. For the same compound, the Dmax was over 70% on BRAF V600E (setting [10]), 30 to 70% on BRAF G466V (setting [12]), 30 to 70% at BRAF G469A (setting [14]) and 30 to 70% at BRAF D594G (setting [16]).
With `O=C1CCC(c2ccc(N3CCC(CN4CCN(c5ccc(-n6cc(-c7cc(Cl)cc(NS(=O)(=O)N8CCCC8)c7F)c(-c7ccncc7)n6)cc5)CC4)CC3)nc2)C(=O)N1` (racemic) [Compound 265, Rac-(R)—N-(5-chloro-3-(1-(4-(4-((1-(5-(2,6-dioxopiperidin-3-yl)pyridin-2-yl)piperidin-4-yl)methyl)piperazin-1-yl)phenyl)-3-(pyridin-4-yl)-1H-pyrazol-4-yl)-2-fluorophenyl)pyrrolidine-1-sulfonamide], the DC50 on BRAF V600E (setting [1]), at BRAF G466V (setting [3]), on BRAF G469A (setting [5]) and at BRAF D594G (setting [7]) was under 10 nM throughout. Moreover, the greatest degradation seen (Dmax) at BRAF V600E (setting [2]), on BRAF G466V (setting [4]), on BRAF G469A (setting [6]) and at BRAF D594G (setting [8]) was over 70% in each case.
For the compound `CCCS(=O)(=O)Nc1cccc(-c2nc(C(C)(C)C)sc2-c2ccnc(Nc3cccc(OC4CCN(C(=O)[C@@H]5CCN(c6ccc(C7CCC(=O)NC7=O)cn6)C5)CC4)c3)n2)c1F` (mixture of isomers) [Compound 94, N-{3-[2-tert-butyl-5-(2-{[3-({1-[(3R)-1-{5-[(3RS)-2,6-dioxopiperidin-3-yl]pyridin-2-yl}pyrrolidine-3-carbonyl]piperidin-4-yl}oxy)phenyl]amino}pyrimidin-4-yl)-1,3-thiazol-4-yl]-2-fluorophenyl}propane-1-sulfonamide], the DC50 is under 10 nM on BRAF V600E (setting [9]), under 10 nM at BRAF G466V (setting [11]), over 500 nM at BRAF G469A (setting [13]) and under 10 nM on BRAF D594G (setting [15]). Moreover, the Dmax at BRAF V600E (setting [10]) was over 70%; on BRAF G466V (setting [12]), 30 to 70%; at BRAF G469A (setting [14]) it was 30 to 70%; on BRAF D594G (setting [16]), 30 to 70%.
For the compound `CCC(C)S(=O)(=O)Nc1cc(Cl)cc(-c2cn(-c3ccc(N4CCN(CC5CCN(c6ccc([C@@H]7CCC(=O)NC7=O)cn6)CC5)CC4)cc3)nc2-c2ccncc2)c1F` (mixture of isomers) [Compound 329, Rac-(R)—N-(5-chloro-3-(1-(4-(4-((1-(5-((S)-2,6-dioxopiperidin-3-yl)pyridin-2-yl)piperidin-4-yl)methyl)piperazin-1-yl)phenyl)-3-(pyridin-4-yl)-1H-pyrazol-4-yl)-2-fluorophenyl)butane-2-sulfonamide], the DC50 is under 10 nM at BRAF V600E (setting [1]), under 10 nM at BRAF G466V (setting [3]), 10 to 50 nM on BRAF G469A (setting [5]) and under 10 nM on BRAF D594G (setting [7]). Further, the maximal degradation (Dmax) on BRAF V600E (setting [2]), on BRAF G466V (setting [4]), at BRAF G469A (setting [6]) and on BRAF D594G (setting [8]) was over 70% each time.
`CCN(C)S(=O)(=O)Nc1cccc(-c2nc(C(C)(C)C)sc2-c2ccnc(Nc3ccc(N4CCN(C(=O)C5CCN(c6ccc(C7CCC(=O)NC7=O)cn6)CC5)CC4)cn3)n2)c1F` (racemic) [Compound 56, Rac-(3R)-3-[6-(4-{4-[6-({4-[2-tert-butyl-4-(3-{[ethyl(methyl)sulfamoyl]amino}-2-fluorophenyl)-1,3-thiazol-5-yl]pyrimidin-2-yl}amino)pyridin-3-yl]piperazine-1-carbonyl}piperidin-1-yl)pyridin-3-yl]piperidine-2,6-dione]: the DC50 on BRAF V600E (setting [9]) is under 10 nM; on BRAF G466V (setting [11]) it was under 10 nM; on BRAF G469A (setting [13]), 10 to 50 nM; on BRAF D594G (setting [15]), under 10 nM. Further, the Dmax at BRAF V600E (setting [10]) was over 70%; on BRAF G466V (setting [12]), 30 to 70%; on BRAF G469A (setting [14]), 30 to 70%; on BRAF D594G (setting [16]) it was 30 to 70%.
